Results published in ChEMBL document CHEMBL4007392, “Modulating Mineralocorticoid Receptor with Non-steroidal Antagonists. New Opportunities for the Development of Potent and Selective Ligands without Off-Target Side Effects” (J Med Chem, 2017).

How the values were obtained:
[1] = molecular target: Mineralocorticoid receptor (Homo sapiens, UniProt P08235, C808S); assay: Binding affinity to N-terminal 6His-GST-tagged human MR LBD (727 to 984 residues) harboring C808S mutation expressed in Escherichia coli BL21DE3/corticosterone complex by AlphaScreen assay
[2] = molecular target: T1, Mineralocorticoid receptor (Rattus norvegicus, UniProt P22199); assay: Displacement of [3H]-Aldosterone from MR in Sprague-Dawley rat kidney cytosolic fraction measured after overnight incubation by liquid scintillation counting method
T1 sequence (P22199 whole entry): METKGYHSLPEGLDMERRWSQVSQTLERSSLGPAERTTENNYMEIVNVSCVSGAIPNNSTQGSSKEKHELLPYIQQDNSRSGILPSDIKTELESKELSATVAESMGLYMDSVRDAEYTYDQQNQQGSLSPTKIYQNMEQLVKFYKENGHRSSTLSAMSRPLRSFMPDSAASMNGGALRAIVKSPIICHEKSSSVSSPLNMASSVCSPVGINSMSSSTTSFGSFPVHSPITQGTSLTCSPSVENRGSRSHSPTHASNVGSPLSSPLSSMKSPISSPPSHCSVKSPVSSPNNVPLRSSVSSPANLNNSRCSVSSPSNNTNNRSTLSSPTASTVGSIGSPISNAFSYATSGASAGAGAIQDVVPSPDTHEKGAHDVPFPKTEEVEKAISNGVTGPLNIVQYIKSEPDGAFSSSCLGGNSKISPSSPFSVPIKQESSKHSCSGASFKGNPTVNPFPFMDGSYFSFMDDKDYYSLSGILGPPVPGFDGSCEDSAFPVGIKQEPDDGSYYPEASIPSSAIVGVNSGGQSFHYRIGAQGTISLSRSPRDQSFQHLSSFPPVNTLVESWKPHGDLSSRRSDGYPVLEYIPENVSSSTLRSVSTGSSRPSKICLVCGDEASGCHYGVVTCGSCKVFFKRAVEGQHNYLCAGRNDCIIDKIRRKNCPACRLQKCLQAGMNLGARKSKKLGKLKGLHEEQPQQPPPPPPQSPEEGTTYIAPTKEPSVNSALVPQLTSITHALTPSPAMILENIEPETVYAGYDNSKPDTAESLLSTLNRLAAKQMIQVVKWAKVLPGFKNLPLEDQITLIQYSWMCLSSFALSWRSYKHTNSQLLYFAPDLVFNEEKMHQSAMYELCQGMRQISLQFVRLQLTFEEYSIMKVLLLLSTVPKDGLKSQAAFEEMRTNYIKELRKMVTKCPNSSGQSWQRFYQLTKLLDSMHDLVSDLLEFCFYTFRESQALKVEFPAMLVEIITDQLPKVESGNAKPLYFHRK

Sequence of Mineralocorticoid receptor (Homo sapiens, UniProt P08235, C808S) (P08235 whole entry C808S, the tested form may be a part): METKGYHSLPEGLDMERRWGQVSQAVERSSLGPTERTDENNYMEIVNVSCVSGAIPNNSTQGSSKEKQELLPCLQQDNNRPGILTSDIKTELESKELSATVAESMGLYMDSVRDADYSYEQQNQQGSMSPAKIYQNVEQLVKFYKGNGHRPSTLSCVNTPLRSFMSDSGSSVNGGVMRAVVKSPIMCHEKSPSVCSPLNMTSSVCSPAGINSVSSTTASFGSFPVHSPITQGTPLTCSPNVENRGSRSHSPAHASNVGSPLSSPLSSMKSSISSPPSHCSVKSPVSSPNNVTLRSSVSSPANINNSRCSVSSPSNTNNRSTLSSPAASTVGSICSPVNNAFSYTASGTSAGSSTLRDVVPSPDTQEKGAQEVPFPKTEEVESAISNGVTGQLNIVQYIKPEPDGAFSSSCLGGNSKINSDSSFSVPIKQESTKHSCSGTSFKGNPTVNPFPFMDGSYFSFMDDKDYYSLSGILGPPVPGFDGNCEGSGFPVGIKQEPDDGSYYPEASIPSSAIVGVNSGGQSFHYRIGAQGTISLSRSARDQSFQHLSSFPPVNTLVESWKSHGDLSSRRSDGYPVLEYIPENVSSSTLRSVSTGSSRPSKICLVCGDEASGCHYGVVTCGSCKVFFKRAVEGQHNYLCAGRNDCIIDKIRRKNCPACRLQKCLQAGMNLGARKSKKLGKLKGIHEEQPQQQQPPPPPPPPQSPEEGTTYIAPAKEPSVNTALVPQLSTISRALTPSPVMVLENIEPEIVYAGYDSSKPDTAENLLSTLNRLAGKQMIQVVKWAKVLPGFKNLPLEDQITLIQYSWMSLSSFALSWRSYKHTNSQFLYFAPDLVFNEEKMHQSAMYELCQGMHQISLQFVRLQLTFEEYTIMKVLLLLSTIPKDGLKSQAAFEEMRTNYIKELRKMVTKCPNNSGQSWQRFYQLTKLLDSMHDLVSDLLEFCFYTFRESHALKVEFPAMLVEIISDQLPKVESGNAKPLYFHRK

Molecule	IC50 [1]	IC50 [2]
CC(C)C[C@H](NC(=O)[C@H](CC(C)C)NC(=O)[C@H](CCC(=O)O)NC(=O)[C@H](CO)NC(=O)[C@H](CS)NC(=O)[C@@H]1CCCN1C(=O)[C@H](CCCNC(=N)N)NC(=O)[C@@H](N)CCCNC(=N)N)C(=O)N[C@@H](CCCCN)C(=O)N[C@@H](Cc1ccc(O)cc1)C(=O)N[C@@H](CC(C)C)C(=O)N[C@H](C(=O)N[C@H](C(=O)N[C@@H](CC(N)=O)C(=O)N[C@@H](CC(=O)O)C(=O)O)[C@H](C)O)[C@H](C)O	1100 nM	–
H-KENNALLRYLLDRDD-OH	1400 nM	–
CC(C)C[C@H](NC(=O)[C@H](CO)NC(=O)[C@H](CCCCN)NC(=O)[C@H](CCC(N)=O)NC(=O)[C@H](CCC(N)=O)NC(=O)[C@H](C)N)C(=O)N[C@@H](CC(C)C)C(=O)N[C@@H](CCC(N)=O)C(=O)N[C@@H](CCC(N)=O)C(=O)N[C@@H](CC(C)C)C(=O)N[C@@H](CC(C)C)C(=O)N[C@H](C(=O)N[C@@H](CCC(=O)O)C(=O)O)[C@@H](C)O	900 nM	–
H-QEKHRILHKLLQNGN-OH	4600 nM	–
Cc1cc(NS(C)(=O)=O)cc2c1C(c1ccc(F)cc1)=NC(C)(C)O2	–	< 500 nM
CC1(C)N=C(c2ccc(Cl)cc2)c2ccc(NS(C)(=O)=O)cc2O1	–	< 500 nM
CC1=C(c2ccc(F)cc2)c2ccc(NS(C)(=O)=O)cc2OC1(C)C	–	< 500 nM
Cc1cc(Cl)ccc1C1=CC(C)(C)Oc2cc(NS(C)(=O)=O)ccc21	–	< 500 nM
